Data: patent publication US6627632B2, “Compositions and methods for the treatment of anorectal disorders” (Cellegy Pharmaceuticals, Inc., priority 1998, dated 2003)
Where a name gives a salt, the structure may show the parent alone.

Legend:
internal anal sphincter = test: rat internal anal sphincter (IAS) relaxation model: internal anal sphincter pressure (IASP) in anesthetized rats; type: in vivo; conditions: for drop of IASP: subsequent dose of 1% nitroglycerin, morning after dibutyryl-cGMP; for relaxation of the rat IAS / reduction of IASP (summary statement in the description): rat IAS in vivo, no dose stated; for potentiation with NTG, comparison of PDE V inhibitors (summary): in vivo model, i.p. PDE V inhibitor plus NTG
Method: Male Sprague-Dawley rats (300-400 gm) were anesthetized with ketamine (90 mg/kg), xylazine (9 mg/kg) given intramuscularly and supplemented as needed with ⅓^rd dose. Rats were gently restrained on their backs on a heated surgical table (Harvard Apparatus) for the duration of the experiments. The diuretic effects of anesthesia was offset by rehydration with saline through an intraperitoneal implanted 24 gauge angiocatheter (VWR, San Francisco, Calif.). The constriction/relaxation measurement assembly included a Millar catheter/transducer (1.67 mm diameter.) connected to a Digi-Med Low Pressure Analyzer (Micro-Med) accurate for pressure measurements between −50 and 150 mmHg. The data were integrated and converted to waveforms with the Digi-Med System Integrator software. Blood pressure changes were monitored using an arterial catheter/transducer and a Digi-Med Blood Pressure Analyzer with the DMSI software. Respiratory changes were monitored using a mercury strain gauge/transducer, wrapped around the rib-cage of the rat, hooked up to a Digi-Med Analog Signal Analyzer along with the DMSI software. Drug delivery was accomplished through two Hamilton syringes with no dead space using PE 10 tubing adjacent to the catheter sensor.
In this example, male Sprague-Dawley rats (250-300 g each) from Charles River were used. The rats were anesthetized intramuscularly with ketamine (90 mg/kg) and xylazine (9 mg/kg) and kept warm on a heated surgical table. All internal anal sphincter pressures (IASP) were measured with Millar catheter/transducers (MPC-500 mikrotip; Millar Instruments, Houston) on low pressure analyzers and blood pressure analyzers and recorded by DMSI software provided by Micro-Med (Louisville). Rats were provided with saline i.p. for rehydration due to the diuretic effects of the anesthesia and re-anesthetized as needed with approximately ⅓ the original dosage. In most experiments, the IASP was allowed to reach a stable baseline level prior to drug delivery. Drugs were delivered to the anal sphincter mainly via PE 20 tubing attached to the catheter(s) near the sensor(s) from 100 μl or 250 μl Hamilton syringes either manually or by infusion with a programmable Harvard automatic infusion pump.

[1] = cardiovascular tolerance to repeated NTG dosing, measured in vivo by mean arterial blood pressure; conditions: rat model, repeated dosing of NTG
From the text: (§1) One issue with chronic or subchronic therapy with nitric oxide or nitric oxide donors such as NTG is the extent of any tachyphylaxis or tolerance to the relaxant effect of nitric oxide. Clinical studies have shown that the human cardiovascular system develops tolerance to nitric oxide donors. […] Thus, it seemed likely that the IAS would also develop tolerance to the effects of nitric oxide upon repeated or prolonged dosing.

muscle of the IAS = test: in vitro study of NTG-induced increases in cGMP levels in the muscle of the IAS; conditions: compared with vascular smooth muscle
vascular smooth muscle = test: in vitro assay of NTG-induced increases in cGMP levels in vascular smooth muscle
From the text: as §1

[2] = in saline, infused continuously to the IAS at 20 μg/hour
[3] = continuously infused at 20 μg/hour in 5% dextrose
[4] = in 5% DMSO/Acetone:Olive oil 1:1, infused continuously at 20 μg/hour
[5] = 10 mg in 100 μl 1M2P i.p. 30 minutes prior to NTG bolus doses (20 μg/min every 30 minutes)

Structure (SMILES): CC(C)(C)NCC(O)c1cc(O)cc(O)c1 (stereo not shown) [terbutaline]
- effect on IASP (internal anal sphincter; [2]): steady and sustained decline in IASP

Structure (SMILES): O=[N+]([O-])OCC(CO[N+](=O)[O-])O[N+](=O)[O-] [nitroglycerin]
- effect on resting IASP (internal anal sphincter; 0.1% NTG in 5% dextrose/water with 1% propylene glycol, bolus doses to the IAS at 20 μg/min every 30 minutes): dramatic drop in resting IASP followed by a complete recovery to resting levels
- nitrate related pressure tolerance (internal anal sphincter; continuous NTG administration, 20 μg/hour, 4 hours): no nitrate related pressure tolerance was noted
- effect on resting IASP (internal anal sphincter; continuous infusion of NTG at 20 μg/hour, 4 hours): steady and sustained decline in resting IASP
- duration of depression of IASP due to NTG (internal anal sphincter; control: vehicle 1M2P 100 μl i.p. 30 minutes prior to NTG bolus doses (20 μg/min every 30 minutes)): constant with each dose
- duration of depression of IASP due to NTG (internal anal sphincter; control: vehicle 1M2P 100 μl i.p. 50 minutes prior to NTG bolus doses (20 μg/min every 30 minutes)): constant with each dose
- duration of depression of IASP due to NTG (internal anal sphincter; control: vehicle 1M2P 100 μl i.p., first NTG dose after 2.75 hours (20 μg/min every 30 minutes)): consistent with each NTG dose
- nitrate related pressure tolerance (internal anal sphincter; repeated NTG bolus administration, 20 μg/min every 30 minutes): no nitrate related pressure tolerance was noted
- tachyphylaxis to the relaxant effect on the IAS (internal anal sphincter; repeated or prolonged dosing in vivo): does not develop
- drop of IASP (internal anal sphincter; first 10 minutes following treatment): 71%
- drop of IASP (internal anal sphincter; for 30 minutes): 24%
- cardiovascular tolerance (mean arterial blood pressure) [1]: develops with repeated dosing
- NTG-induced increases in cGMP levels (muscle of the IAS): not as attenuated as those in vascular smooth muscle
- NTG-induced increases in cGMP levels (vascular smooth muscle): attenuated dramatically

Structure (SMILES): Cn1c(=O)c2[nH]cnc2n(C)c1=O [Theophylline]
- effect on IASP (internal anal sphincter; continuously infused at 2 μg/hour in 5% dextrose, 3 hour experiment): minimal drop in average IASP
- effect on IASP (internal anal sphincter; [3]): moderate drop in average IASP
- effect on IASP (internal anal sphincter; continuously infused at 200 μg/hour in 5% dextrose, 4 hour experiment): dramatic and sustained drop in IASP
- relaxation of the rat IAS / reduction of IASP (summary statement in the description) (internal anal sphincter): relaxed the rat IAS

Structure (SMILES): CCCCOc1cc(CC2CNC(=O)N2)ccc1OC (stereo not shown) [RO-20-1724, 4-(3-Butoxy-4-methoxybenzyl)-2-imidazolidinone]
- effect on IASP (internal anal sphincter; [4]): minimal

Structure (SMILES): Cn1c(=O)c2c(ncn2CC(O)CO)n(C)c1=O (stereo not shown) [dyphylline, 7-(2,3-dihydroxypropyl) theophylline]
- effect on IASP (internal anal sphincter; [3]): IAS relaxing effects
- relaxation of the rat IAS / reduction of IASP (summary statement in the description) (internal anal sphincter): reduce IASP

Structure (SMILES): CC1=NS(=O)(=O)c2cc(Cl)ccc2N1 [Diazoxide]
- effect on IASP (internal anal sphincter; [4]): dramatic drop in IASP
- relaxation of the rat IAS / reduction of IASP (summary statement in the description) (internal anal sphincter): relaxed the rat IAS in vivo

Structure (SMILES): COc1ccc([C@@H]2Sc3ccccc3N(CCN(C)C)C(=O)[C@@H]2OC(C)=O)cc1 [Diltiazem]
- effect on IASP (internal anal sphincter; [2]): dramatic and sustained drop in IASP

Structure (SMILES): CC(C)Cn1c(=O)n(C)c(=O)c2[nH]cnc21 [IBMX, 3-Isobutyl-1-methylxanthine]
- effect on IASP (internal anal sphincter; in 5% DMSO/Acetone:Olive oil 1:1, infused at 200 μg/hour): significant and sustained drop in IASP
- time at which the drop in IASP leveled off (internal anal sphincter; in 5% DMSO/Acetone:Olive oil 1:1, infused at 200 μg/hour, after initiation of the infusion): 1 h
- effect on IASP (internal anal sphincter; [4]): similar

Structure (SMILES): CC(C)(C)NCC(O)c1ccc(O)c(CO)c1 (stereo not shown) [salbutamol]
- short-term effect on IASP (internal anal sphincter; 200 μg in saline delivered to the IAS, alone): no short-term effects on the IASP
- effect on IASP (internal anal sphincter; [2]): significant drop in IASP throughout the experiment

Structure (SMILES): NCCc1cc(O)c(O)cc1O [6-hydroxydopamine]
- course of IASP by day 19 (internal anal sphincter; 200 μg bolus in saline to the IAS each day for 5 days, day 19): partial recovery in IASP
- average IASP below the original baseline pressure (internal anal sphincter; 200 μg bolus in saline to the IAS each day for 5 days, day 22): 36%
- course of IASP through day 16 (internal anal sphincter; 200 μg bolus in saline to the IAS each day for 5 days, through day 16, 11 days after termination of treatment): continuous drop in IASP
- period of prolonged reduction in IASP (internal anal sphincter; following 5 daily topical doses of 200 μg in saline): ≥ 3 week

Structure (SMILES): Nc1cc(N2CCCCC2)nc(N)[n+]1[O-] [minoxidil]
- reduction of the IASP (internal anal sphincter; single 20 μl dose of a 4% solution in 62.5% propylene glycol, over 2.5 hours following treatment): 64%

Structure (SMILES): CCCC(=O)Nc1ncnc2c1ncn2[C@@H]1O[C@@H]2COP(=O)(O)O[C@H]2[C@H]1OC(=O)CCC [Dibutyryl cAMP, N6,2′-O-Dibutyryladenosine-3′,5′-cyclic monophosphate, sodium salt monohydrate]
- effect on IASP (internal anal sphincter; [2]): minor depression in IASP
- efficacy of cAMP analogs relative to each other (internal anal sphincter; rat model, aqueous-soluble analogs): more efficacious in the rat model than the 8-bromo derivative

Structure (SMILES): CC(C)NCC(O)c1ccc(O)c(O)c1 (stereo not shown) [isoproterenol]
- effect on IASP (internal anal sphincter; 100 μl 1M2P vehicle i.p., 30 minutes later continuous infusion in saline at 0.2 μg/hour (sub-threshold dose)): no significant effect on lowering IASP
- effect on IASP (internal anal sphincter; bolus dose of 200 μg to the IAS): dramatic drop in IASP

Structure (SMILES): COc1ccc(CCN(C)CCCC(C#N)(c2ccc(OC)c(OC)c2)C(C)C)cc1OC (stereo not shown) [Verapamil]
- effect on IASP (internal anal sphincter; [2]): dramatic and sustained drop in IASP

Structure (SMILES): COc1ccc(C2CNC(=O)C2)cc1OC1CCCC1 (stereo not shown) [rolipram]
- effect on IASP (internal anal sphincter; [4]): significant drops in IASP followed by shorter recovery phases

Structure (SMILES): CCCC(=O)Nc1nc2c(ncn2C2OC3COP(=O)([O-])OC3C2OC(=O)CCC)c(=O)[nH]1.[Na+] (stereo not shown) [dibutyryl-cGMP, N2,2′-O-Dibutyrylguanosine-3′,5′-cyclic monophosphate, sodium salt]
- reduction of mean IASP (internal anal sphincter; 20 μl of a 10% solution in saline applied to the anal canal, over 2.5 hours following treatment): 45%
- IASP still reduced (internal anal sphincter; 20 μl of a 10% solution in saline, by the following morning): 34%
- drop of average IASP (internal anal sphincter; 20 μl of a 10% solution in saline, over the last hour prior to terminating the experiment): 60%
- lowering of IASP (internal anal sphincter; further dose after IASP returned to pre-treatment levels, over the ensuing 3 hours and 10 minutes): 15%

Structure (SMILES): O=C(O)c1ccc(C2=C3C=CC(=N3)C(c3ccc(C(=O)O)cc3)=c3ccc([nH]3)=C(c3ccc(C(=O)O)cc3)c3ccc([n-]3)C(c3ccc(C(=O)O)cc3)c3ccc2[n-]3)cc1.[Cl-].[Mn+3] (stereo not shown) [MnTBAP, Mn (III) tetrakis (4-benzoic acid) porphyrin chloride]
- NO enhancing activity (internal anal sphincter; rat IASP model, superoxide scavenger with NTG): did not demonstrate significant NO enhancing activity

Structure (SMILES): CCCOc1ccccc1-c1nc2nn[nH]c2c(=O)[nH]1 [zaprinast]
- time at which duration of IASP depression by NTG peaked (internal anal sphincter; 10 mg i.p. 2.75 hours prior to NTG bolus doses, time after i.p. dose): 3.5 to 4 h
- duration of IASP depression by NTG (potentiation of NTG) (internal anal sphincter; [5]): increasing duration of IASP depression with consecutive doses of NTG
- duration of IASP depression by NTG (potentiation of NTG) (internal anal sphincter; 10 mg in 100 μl 1M2P i.p. 2.75 hours prior to NTG bolus doses (20 μg/min every 30 minutes)): continued to increase with each NTG dose
- reduction of mean IASP compared with vehicle treatment alone (internal anal sphincter; 20 μL of a 5% solution in 1-methyl-2-pyrrolidinone, over 32 minutes): 21%

Structure (SMILES): OCCN(CCO)c1nc(N2CCCCC2)c2nc(N(CCO)CCO)nc(N3CCCCC3)c2n1 [Dipyridamole]
- duration of depression of IASP due to NTG relative to the vehicle-treated rat (internal anal sphincter; 10 mg in 100 μl 1M2P i.p. 50 minutes prior to NTG bolus doses (20 μg/min every 30 minutes)): approximately twice
- potentiation with NTG, comparison of PDE V inhibitors (summary) (internal anal sphincter): less striking potentiation with NTG

Structure (SMILES): COc1cc2nc(N3CCN(C(=O)c4ccco4)CC3)nc(N)c2cc1OC [prazosin]
- time after which the drop in IASP plateaued (internal anal sphincter; in 5% DMSO/Acetone:Olive oil 1:1, infused at 20 μg/hour): 1 h
- effect on IASP (internal anal sphincter; [4]): significant and sustained drop in IASP

Structure (SMILES): Clc1ccc2ncnc(NCc3ccc4c(c3)OCO4)c2c1 [MBCQ, 4-((3,4-(Methylenedioxy)benzyl)amino)-6-chloroquinazoline]
- potentiation of NTG (internal anal sphincter; [5]): No noticeable potentiation of NTG
- potentiation with NTG, comparison of PDE V inhibitors (summary) (internal anal sphincter): did not demonstrate significant activity
